{
  "source": "paper PMC6045410",
  "about": "(ACS Omega, 2017)",
  "molecular_target": "FabG4 (β-ketoacyl CoA reductase, EC 1.1.1.100) (Mycobacterium tuberculosis, UniProt I6Y778)",
  "data": [
    {"smiles": "COc1ccc(C(c2ccc(OCCN(C(C)C)C(C)C)cc2)c2cccs2)cc1", "note": "(racemic) [S-S006-830, diisopropyl-(2-{4-[(R,S)-(4-methoxy-phenyl)-thiophen-2-yl-methyl]-phenoxy}-ethyl)-amine (printed for the racemate S006-830)]", "values": [
      {"measurement": "affinity pull-down on compound-linked agarose beads, 2-DE, LC-MS-MS", "value": "The pull-down of FabG4 by drug-affinity beads along with its overexpression by S-S006-830-resistant Mtb"}
    ]}
  ]
}
